According to US20160296529A1, “AMINOTRIAZOLOPYRIDINE FOR USE IN THE TREATMENT OF INFLAMMATION, AND PHARMACEUTICAL COMPOSITIONS THEREOF” (priority 2012, published 2016):

Tests used:
rat CIA model = assay: CIA model 2 (rat collagen induced arthritis, ankle diameter); assay type: in vivo, Female Lewis rats
Description: Female Lewis rats (n=76) that weighed 165-194 grams (mean approx. 178 g) on arthritis day 0 were obtained from Charles River Laboratories, Inc., Wilmington, Mass., (ref#393739). Animals were identified by a distinct number at the base of the tail delineating group and animal number.
Upon arrival, animals were housed 4/cage in shoe-box polycarbonate cages and acclimated for 8 days prior to being immunized with type II collagen. No concurrent medications were given.
During the acclimation and study periods, animals were housed in a laboratory environment with temperatures ranging 19-25° […]. and relative humidity of 30%-70%. Automatic timers provided 12 h of light and 12 h of dark. Animals were allowed access ad libitum to food and water.
Acclimated female Lewis rats were anesthetized with Isoflurane and receive subcutaneous/intradermal (SC/ID) injections with 300 μL of Freund's Incomplete Adjuvant (Difco, Detroit, Mich.) containing 2 mg/mL bovine type II collagen (Elastin Products, Owensville, Mo.) at the base of the tail and 2 sites on the back on day −9 and on day −3.
Collagen was prepared by making a 4 mg/mL solution in 0.01N Acetic acid. Equal volumes of collagen and Freund's incomplete adjuvant, were emulsified by hand mixing until a bead of this material holds its form when placed in water. Each animal received 300 μL of the mixture on each occasion divided over 3 subcutaneous sites on back.
On study day 1, onset of arthritis occurred and animals were randomized into treatment groups. After randomization, all cages were labelled with protocol number, group number, and animal numbers. Randomization into each group was done after ankle joint swelling was obviously established and there was good evidence of bilateral disease.
Animals with established type II collagen arthritis were treated daily (QD) by the oral (PO) route for 13 days with vehicle (methylcellulose 0.5% (w/v)), or with active compound(s) prepared in methylcellulose, 0.5% (w/v). Oral dosing was initiated on arthritis day 1 and continued daily (QD at 24 h intervals) through day 13. Animals were terminated on arthritis day 14.
The severity of the arthritis was evaluated by measuring the diameter of both ankles on the animals. Caliper measurements of ankles were taken every day beginning on day 0, with a Digitrix II micrometer (Fowler & NSK). Baseline measurements were taken using one ankle with values rounded to one-thousandth of an inch. Measurements were confirmed as clinically normal (0.260-0.264 in) by comparison with historical values for rats based on a range of body weights. Baseline measurements were then applied to both ankles, and these values remain with the animal so long as the ankle was clinically normal with good definition of all the ankle bones and no evidence of inflammation. Animals were terminated on day 14.

hepatocytes of rat = assay: In vitro metabolism study in hepatocytes, rat; assay type: in vitro ADME; settings: rat hepatocyte suspension; 24 h incubation of 100 μM [14C]-Formula II
Procedure: (§1) Hepatocyte stability (Concentrations of the compound according to Formula II and its main metabolites (as % of total radioactivity) after 24 h incubation of 100 μM [^14C]-Compound according to Formula II in hepatocyte suspension of different species)

hepatocytes of dog = assay: In vitro metabolism study in hepatocytes, dog; assay type: in vitro ADME; settings: dog hepatocyte suspension; 24 h incubation of 100 μM [14C]-Formula II
Procedure: as §1

[1] = Single dose pharmacokinetics in animals, mouse; assay type: in vivo, CD1 mice
Procedure: Pharmacokinetic studies were performed in various animal species dosed with the compound according to Formula II to determine the exposure to the compound according to Formula I as well as its apparent terminal half life (T1/2), when possible.
Sprague-Dawley rats (male, 200-250 g), CD1 mice (male, 25-30 g), Beagle dogs (male, 9-10 kg), Göttingen minipigs (male, 10-15 kg) and New Zealand White rabbits (male, 3-5 kg) were acclimatized for at least 7 days before treatment and were kept on a 12 hr light/dark cycle (07 h00-19 h00).
Temperature was maintained at approximately 22° C., and food and water were provided ad libitum.
The compound according to Formula II was formulated in 0.5% methylcellulose and dosed orally to 3 animals (or 3 mouse/time points) as a single esophageal gavage at dose ranging from 15 to 45 mg/kg under a dosing volume of 5 or 10 mL/kg.
Blood samples were collected over a 24-h period via the jugular vein (dog, minipig), ear blood vessel (rabbit), cardiac puncture (mouse) or retro-orbital sinus (rat) with lithium heparin as anti-coagulant. Whole blood samples were centrifuged and the resulting plasma samples were stored at −20° C. pending analysis.
Plasma concentrations of the compound according to Formula I and of the compound according to Formula II were determined by an LC-MS/MS method with a limit of quantification ≦10.0 ng/mL for both Formula I and Formula II for all species.
Pharmacokinetic parameters were calculated using a statistical analysis package (WinNonLin (Pharsight, Sunnyvale, Calif.: CA 94086, USA).

## Nc1nc2cccc(-c3ccc(CN4CCS(=O)(=O)CC4)cc3)n2n1 [Formula I, 5-[4-(1,1-Dioxothiomorpholin-4-ylmethyl)-phenyl]-[1,2,4]triazolo[1,5-a]pyridin-2-ylamine]
Rat CIA model; group G: Formula I 25 mg/kg PO QD
  significance to vehicle control (ANOVA) in the CIA second model: mg/kg (*) (((*) = p ≦ 0.05 ANOVA to vehicle control))
Rat CIA model; group G: Formula I 25 mg/kg PO QD, day 0
  ankle diameter: 0.2629 inches
Rat CIA model; group G: Formula I 25 mg/kg PO QD, day 1
  ankle diameter: 0.2717 inches
Rat CIA model; group G: Formula I 25 mg/kg PO QD, day 2
  ankle diameter: 0.2747 inches
Rat CIA model; group G: Formula I 25 mg/kg PO QD, day 3
  ankle diameter: 0.2826 inches
Rat CIA model; group G: Formula I 25 mg/kg PO QD, day 4
  ankle diameter: 0.2892 inches
Rat CIA model; group G: Formula I 25 mg/kg PO QD, day 5
  ankle diameter: 0.2973 inches
Rat CIA model; group G: Formula I 25 mg/kg PO QD, day 6
  ankle diameter: 0.3064 inches
Rat CIA model; group G: Formula I 25 mg/kg PO QD, day 7
  ankle diameter: 0.3108 inches
Rat CIA model; group G: Formula I 25 mg/kg PO QD, day 8
  ankle diameter: 0.3150 inches
Rat CIA model; group G: Formula I 25 mg/kg PO QD, day 9
  ankle diameter: 0.3089 inches
Rat CIA model; group G: Formula I 25 mg/kg PO QD, day 10
  ankle diameter: 0.3046 inches
Rat CIA model; group G: Formula I 25 mg/kg PO QD, day 11
  ankle diameter: 0.3025 inches
Rat CIA model; group G: Formula I 25 mg/kg PO QD, day 12
  ankle diameter: 0.3006 inches
Rat CIA model; group G: Formula I 25 mg/kg PO QD, day 13
  ankle diameter: 0.2996 inches
Rat CIA model; group G: Formula I 25 mg/kg PO QD, day 14
  ankle diameter: 0.3016 inches
Rat CIA model; group H: Formula I 50 mg/kg PO QD
  significance to vehicle control (ANOVA) in the CIA second model: mg/kg (*) (((*) = p ≦ 0.05 ANOVA to vehicle control))
Rat CIA model; group H: Formula I 50 mg/kg PO QD, day 0
  ankle diameter: 0.2624 inches
Rat CIA model; group H: Formula I 50 mg/kg PO QD, day 1
  ankle diameter: 0.2718 inches
Rat CIA model; group H: Formula I 50 mg/kg PO QD, day 2
  ankle diameter: 0.2705 inches
Rat CIA model; group H: Formula I 50 mg/kg PO QD, day 3
  ankle diameter: 0.2814 inches
Rat CIA model; group H: Formula I 50 mg/kg PO QD, day 4
  ankle diameter: 0.2886 inches
Rat CIA model; group H: Formula I 50 mg/kg PO QD, day 5
  ankle diameter: 0.2970 inches
Rat CIA model; group H: Formula I 50 mg/kg PO QD, day 6
  ankle diameter: 0.3061 inches
Rat CIA model; group H: Formula I 50 mg/kg PO QD, day 7
  ankle diameter: 0.3110 inches
Rat CIA model; group H: Formula I 50 mg/kg PO QD, day 8
  ankle diameter: 0.3160 inches
Rat CIA model; group H: Formula I 50 mg/kg PO QD, day 9
  ankle diameter: 0.3085 inches
Rat CIA model; group H: Formula I 50 mg/kg PO QD, day 10
  ankle diameter: 0.3032 inches
Rat CIA model; group H: Formula I 50 mg/kg PO QD, day 11
  ankle diameter: 0.3041 inches
Rat CIA model; group H: Formula I 50 mg/kg PO QD, day 12
  ankle diameter: 0.3039 inches
Rat CIA model; group H: Formula I 50 mg/kg PO QD, day 13
  ankle diameter: 0.3014 inches
Rat CIA model; group H: Formula I 50 mg/kg PO QD, day 14
  ankle diameter: 0.2999 inches
Hepatocytes of rat
  In vitro metabolic profile of Formula II (as % of total radioactivity): 12%
Hepatocytes of dog
  In vitro metabolic profile of Formula II (as % of total radioactivity): 5.7%
[1]; after Formula II 30 mg/kg oral
  Ratio I/II of exposure (AUC Formula I : AUC Formula II): 1.56
[1]; male, CD1, plasma, after Formula II 30 mg/kg oral, read-out: exposure (expressed as AUC)
  AUC: 11400 ng·h/mL
[1]; male, CD1, plasma, oral, upon administration of Formula II, read-out: apparent terminal elimination half-life (converted)
  half-life: 2.1 h
